Reference: patent publication US7759331B2, “Pyridine-containing macroheterococylic compounds as kinase inhibitors” (Janssen Pharmaceutica NV, priority 2006, dated 2010)

Columns and labels:
Experiment in all cases: Protein kinase selectivity panel
Type in all cases: biochemical
Details in all cases: 1.0 μM compound, 10 μM ATP
[1] = target: Abl(m) (Mus musculus, UniProt P00520)
Method in brief: (§1)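 Single-point screen: compound 1.0 μM; ATP 10 μM; peptide/protein substrate matched to each kinase; reaction linear in time.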

[2] = target: CK1δ(h) (Homo sapiens, UniProt P48730)
Sequence of CK1δ(h) (P48730 whole entry): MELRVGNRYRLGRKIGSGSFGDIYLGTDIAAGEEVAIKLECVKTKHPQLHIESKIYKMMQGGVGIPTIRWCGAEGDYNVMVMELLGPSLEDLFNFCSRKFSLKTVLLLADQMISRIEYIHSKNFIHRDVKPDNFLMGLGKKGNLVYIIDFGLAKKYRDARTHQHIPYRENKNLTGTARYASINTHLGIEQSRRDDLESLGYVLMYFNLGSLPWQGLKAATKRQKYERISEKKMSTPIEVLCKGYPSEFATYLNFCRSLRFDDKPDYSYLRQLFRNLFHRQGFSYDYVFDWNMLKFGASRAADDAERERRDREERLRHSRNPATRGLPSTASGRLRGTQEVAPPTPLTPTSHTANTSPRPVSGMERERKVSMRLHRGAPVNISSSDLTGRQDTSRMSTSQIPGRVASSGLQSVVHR
Method in brief: as §1

[3] = target: FGFR3(h) (Homo sapiens, UniProt P22607)
Sequence of FGFR3(h) (P22607 23-806): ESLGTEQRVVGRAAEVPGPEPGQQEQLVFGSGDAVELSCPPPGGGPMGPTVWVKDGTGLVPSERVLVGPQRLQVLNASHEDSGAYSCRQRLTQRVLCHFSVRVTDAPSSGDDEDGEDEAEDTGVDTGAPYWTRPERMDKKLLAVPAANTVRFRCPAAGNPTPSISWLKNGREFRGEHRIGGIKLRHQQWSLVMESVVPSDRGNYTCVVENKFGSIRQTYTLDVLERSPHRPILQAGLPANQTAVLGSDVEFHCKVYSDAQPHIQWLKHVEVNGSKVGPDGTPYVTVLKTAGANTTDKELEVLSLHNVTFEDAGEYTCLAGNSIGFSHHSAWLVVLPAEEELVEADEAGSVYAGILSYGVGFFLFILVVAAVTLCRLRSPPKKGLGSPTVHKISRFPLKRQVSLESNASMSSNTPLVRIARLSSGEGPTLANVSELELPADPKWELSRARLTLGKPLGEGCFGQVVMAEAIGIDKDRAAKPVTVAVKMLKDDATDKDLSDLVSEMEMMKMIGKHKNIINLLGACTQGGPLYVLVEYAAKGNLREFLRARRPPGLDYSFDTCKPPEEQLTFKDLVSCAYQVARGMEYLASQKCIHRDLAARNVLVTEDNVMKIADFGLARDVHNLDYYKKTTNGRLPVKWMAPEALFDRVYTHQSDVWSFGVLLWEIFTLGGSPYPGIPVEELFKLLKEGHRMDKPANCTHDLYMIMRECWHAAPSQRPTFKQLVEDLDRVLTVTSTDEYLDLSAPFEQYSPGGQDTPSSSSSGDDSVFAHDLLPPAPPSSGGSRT
Method in brief: as §1

[4] = target: IR(h) (Homo sapiens, UniProt P06213)
Sequence of IR(h) (P06213 28-1382): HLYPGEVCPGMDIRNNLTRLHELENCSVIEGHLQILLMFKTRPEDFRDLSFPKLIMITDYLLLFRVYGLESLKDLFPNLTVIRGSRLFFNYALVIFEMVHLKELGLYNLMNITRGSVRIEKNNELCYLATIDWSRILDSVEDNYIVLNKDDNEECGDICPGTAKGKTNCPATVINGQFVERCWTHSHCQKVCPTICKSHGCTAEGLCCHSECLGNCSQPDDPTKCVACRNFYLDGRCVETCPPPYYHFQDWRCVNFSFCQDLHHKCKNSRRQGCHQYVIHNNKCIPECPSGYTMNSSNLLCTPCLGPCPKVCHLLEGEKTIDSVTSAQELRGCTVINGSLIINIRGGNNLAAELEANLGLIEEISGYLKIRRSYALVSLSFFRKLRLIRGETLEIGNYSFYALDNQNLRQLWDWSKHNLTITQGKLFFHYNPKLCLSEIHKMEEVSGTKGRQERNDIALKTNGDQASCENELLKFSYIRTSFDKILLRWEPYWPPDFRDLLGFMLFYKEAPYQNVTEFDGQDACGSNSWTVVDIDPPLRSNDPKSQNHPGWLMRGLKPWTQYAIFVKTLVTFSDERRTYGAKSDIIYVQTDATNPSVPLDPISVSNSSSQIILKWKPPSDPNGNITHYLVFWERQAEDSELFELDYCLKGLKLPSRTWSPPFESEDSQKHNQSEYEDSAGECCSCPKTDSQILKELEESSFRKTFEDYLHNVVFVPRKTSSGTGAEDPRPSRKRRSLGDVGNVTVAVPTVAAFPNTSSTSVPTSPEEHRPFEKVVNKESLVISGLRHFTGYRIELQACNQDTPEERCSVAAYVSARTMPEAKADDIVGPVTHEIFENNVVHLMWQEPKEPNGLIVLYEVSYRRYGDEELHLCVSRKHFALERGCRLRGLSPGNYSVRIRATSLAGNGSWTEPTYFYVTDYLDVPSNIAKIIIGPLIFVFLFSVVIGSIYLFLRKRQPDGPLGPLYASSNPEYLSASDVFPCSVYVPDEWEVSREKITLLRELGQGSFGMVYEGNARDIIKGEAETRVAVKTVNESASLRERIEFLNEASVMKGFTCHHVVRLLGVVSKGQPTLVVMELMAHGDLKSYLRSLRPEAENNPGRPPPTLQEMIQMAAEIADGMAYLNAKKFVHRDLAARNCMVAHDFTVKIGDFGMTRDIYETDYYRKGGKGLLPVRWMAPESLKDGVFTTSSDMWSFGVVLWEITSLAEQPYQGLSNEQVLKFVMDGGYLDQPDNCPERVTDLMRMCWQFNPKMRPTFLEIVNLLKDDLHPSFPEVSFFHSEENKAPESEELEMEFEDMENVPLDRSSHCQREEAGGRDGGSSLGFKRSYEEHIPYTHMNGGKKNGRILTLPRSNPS
Method in brief: as §1

[5] = target: MAPKAP-K2(h) (Homo sapiens, UniProt P49137)
Sequence of MAPKAP-K2(h) (P49137 whole entry): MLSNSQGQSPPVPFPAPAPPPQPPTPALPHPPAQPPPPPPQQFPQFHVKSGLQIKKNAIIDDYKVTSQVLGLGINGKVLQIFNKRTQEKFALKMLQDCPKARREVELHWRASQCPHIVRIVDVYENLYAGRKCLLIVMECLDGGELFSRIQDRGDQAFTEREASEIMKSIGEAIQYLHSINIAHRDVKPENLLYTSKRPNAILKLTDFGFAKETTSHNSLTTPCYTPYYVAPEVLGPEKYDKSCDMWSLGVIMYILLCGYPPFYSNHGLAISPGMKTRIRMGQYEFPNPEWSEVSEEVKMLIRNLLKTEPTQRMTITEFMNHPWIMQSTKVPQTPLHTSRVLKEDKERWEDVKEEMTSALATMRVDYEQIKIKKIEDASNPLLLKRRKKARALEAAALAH
Method in brief: as §1

[6] = target: T1, MKK7β(h) (Homo sapiens, UniProt O14733)
T1 sequence (O14733 1-419): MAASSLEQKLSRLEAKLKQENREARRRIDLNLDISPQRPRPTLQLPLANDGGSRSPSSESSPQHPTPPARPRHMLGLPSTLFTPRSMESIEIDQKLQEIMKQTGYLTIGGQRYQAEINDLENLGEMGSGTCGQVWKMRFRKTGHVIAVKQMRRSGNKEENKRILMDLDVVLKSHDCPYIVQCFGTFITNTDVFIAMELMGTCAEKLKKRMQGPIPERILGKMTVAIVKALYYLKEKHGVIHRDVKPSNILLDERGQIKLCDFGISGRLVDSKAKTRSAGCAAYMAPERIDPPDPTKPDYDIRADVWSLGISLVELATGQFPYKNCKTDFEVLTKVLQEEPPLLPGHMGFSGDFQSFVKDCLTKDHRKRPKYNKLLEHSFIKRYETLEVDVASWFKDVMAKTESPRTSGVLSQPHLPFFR
Method in brief: as §1

[7] = target: T2, PDK1(h) (Homo sapiens, UniProt O15530)
T2 sequence (O15530 1-556): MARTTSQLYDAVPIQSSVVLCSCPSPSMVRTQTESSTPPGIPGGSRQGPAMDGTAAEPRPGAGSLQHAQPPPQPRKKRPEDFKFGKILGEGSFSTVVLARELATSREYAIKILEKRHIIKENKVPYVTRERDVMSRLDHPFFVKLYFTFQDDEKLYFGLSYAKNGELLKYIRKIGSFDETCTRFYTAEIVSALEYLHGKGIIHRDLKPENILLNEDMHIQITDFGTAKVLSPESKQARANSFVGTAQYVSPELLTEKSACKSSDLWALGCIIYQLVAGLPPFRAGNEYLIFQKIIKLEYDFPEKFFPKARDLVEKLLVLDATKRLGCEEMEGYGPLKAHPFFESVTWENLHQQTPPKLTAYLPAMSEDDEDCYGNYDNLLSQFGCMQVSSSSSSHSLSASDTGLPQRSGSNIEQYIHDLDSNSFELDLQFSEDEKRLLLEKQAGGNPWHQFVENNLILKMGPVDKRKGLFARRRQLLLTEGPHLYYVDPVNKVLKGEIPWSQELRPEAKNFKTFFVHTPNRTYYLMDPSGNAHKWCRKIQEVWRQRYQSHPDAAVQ
Method in brief: as §1

[8] = target: PKA(h) (Homo sapiens, UniProt P17612)
Method in brief: as §1

[9] = target: T3, PKCε(h) (Homo sapiens, UniProt Q02156)
T3 sequence (Q02156 1-737): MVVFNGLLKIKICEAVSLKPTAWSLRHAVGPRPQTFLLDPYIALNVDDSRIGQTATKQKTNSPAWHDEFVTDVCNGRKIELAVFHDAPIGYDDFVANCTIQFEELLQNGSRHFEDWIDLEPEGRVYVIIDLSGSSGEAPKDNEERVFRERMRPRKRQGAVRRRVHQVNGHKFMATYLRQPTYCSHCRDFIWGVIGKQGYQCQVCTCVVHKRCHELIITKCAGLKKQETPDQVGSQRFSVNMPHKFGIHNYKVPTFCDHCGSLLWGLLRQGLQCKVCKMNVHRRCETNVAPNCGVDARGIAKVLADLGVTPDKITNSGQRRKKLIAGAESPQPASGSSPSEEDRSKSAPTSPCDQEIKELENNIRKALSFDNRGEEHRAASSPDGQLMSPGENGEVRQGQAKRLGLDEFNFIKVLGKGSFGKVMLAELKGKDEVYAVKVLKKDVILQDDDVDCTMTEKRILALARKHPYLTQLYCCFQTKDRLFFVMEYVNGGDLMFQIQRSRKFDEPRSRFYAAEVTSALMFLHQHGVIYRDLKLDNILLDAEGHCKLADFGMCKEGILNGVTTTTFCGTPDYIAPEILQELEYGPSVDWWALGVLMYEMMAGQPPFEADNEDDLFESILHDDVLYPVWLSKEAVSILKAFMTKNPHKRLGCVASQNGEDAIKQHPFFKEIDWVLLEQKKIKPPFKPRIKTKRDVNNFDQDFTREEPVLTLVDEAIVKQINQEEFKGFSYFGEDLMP
Method in brief: as §1

[10] = target: Rsk3(h) (Homo sapiens, UniProt Q15349)
Method in brief: as §1

[11] = target: SAPK2b(h) (Homo sapiens, UniProt Q15759)
Sequence of SAPK2b(h) (Q15759 whole entry): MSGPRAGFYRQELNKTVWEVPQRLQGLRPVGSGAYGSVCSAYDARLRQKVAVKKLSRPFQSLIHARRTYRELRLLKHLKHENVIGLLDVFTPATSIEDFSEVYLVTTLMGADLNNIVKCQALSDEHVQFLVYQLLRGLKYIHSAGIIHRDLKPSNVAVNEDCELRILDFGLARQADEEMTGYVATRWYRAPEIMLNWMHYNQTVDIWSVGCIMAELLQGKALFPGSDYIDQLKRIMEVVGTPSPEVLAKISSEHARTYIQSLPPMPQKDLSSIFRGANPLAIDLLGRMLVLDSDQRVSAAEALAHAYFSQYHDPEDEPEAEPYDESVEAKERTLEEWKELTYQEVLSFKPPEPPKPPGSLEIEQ
Method in brief: as §1

Sequence of Abl(m) (P00520 whole entry): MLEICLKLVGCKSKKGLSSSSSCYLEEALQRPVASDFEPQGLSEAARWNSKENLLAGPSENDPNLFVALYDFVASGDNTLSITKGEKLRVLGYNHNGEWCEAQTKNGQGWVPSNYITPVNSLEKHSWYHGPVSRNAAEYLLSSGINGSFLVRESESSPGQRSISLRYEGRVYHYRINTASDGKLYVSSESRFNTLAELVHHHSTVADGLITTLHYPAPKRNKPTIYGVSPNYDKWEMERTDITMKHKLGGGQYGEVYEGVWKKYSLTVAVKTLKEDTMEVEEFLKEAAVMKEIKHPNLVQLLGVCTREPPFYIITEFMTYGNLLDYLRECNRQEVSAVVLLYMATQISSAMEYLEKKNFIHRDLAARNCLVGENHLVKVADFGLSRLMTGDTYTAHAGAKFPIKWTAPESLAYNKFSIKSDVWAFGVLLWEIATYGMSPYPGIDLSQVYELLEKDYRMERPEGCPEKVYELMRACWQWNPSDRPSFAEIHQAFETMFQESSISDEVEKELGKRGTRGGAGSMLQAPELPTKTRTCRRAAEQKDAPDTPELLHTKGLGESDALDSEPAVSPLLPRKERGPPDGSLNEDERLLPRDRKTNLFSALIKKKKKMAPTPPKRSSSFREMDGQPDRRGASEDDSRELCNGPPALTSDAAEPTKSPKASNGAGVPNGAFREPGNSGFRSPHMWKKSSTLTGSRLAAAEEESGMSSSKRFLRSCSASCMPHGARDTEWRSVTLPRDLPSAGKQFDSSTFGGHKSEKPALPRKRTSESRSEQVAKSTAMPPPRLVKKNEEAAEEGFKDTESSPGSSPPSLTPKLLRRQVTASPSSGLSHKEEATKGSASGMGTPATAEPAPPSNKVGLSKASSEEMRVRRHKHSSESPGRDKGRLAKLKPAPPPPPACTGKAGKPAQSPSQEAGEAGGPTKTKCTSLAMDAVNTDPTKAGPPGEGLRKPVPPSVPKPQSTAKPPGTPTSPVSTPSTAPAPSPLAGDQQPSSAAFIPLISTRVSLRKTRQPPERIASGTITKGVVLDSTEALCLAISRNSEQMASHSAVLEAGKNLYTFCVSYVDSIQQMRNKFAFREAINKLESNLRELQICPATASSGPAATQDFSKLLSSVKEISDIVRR

| Compound | Activity at Protein Kinase Assays (% of control), Abl(m) [1] | Activity at Protein Kinase Assays (% of control), CK1δ(h) [2] | Activity at Protein Kinase Assays (% of control), FGFR3(h) [3] | Activity at Protein Kinase Assays (% of control), IR(h) [4] | Activity at Protein Kinase Assays (% of control), MAPKAP-K2(h) [5] | Activity at Protein Kinase Assays (% of control), MKK7β(h) [6] | Activity at Protein Kinase Assays (% of control), PDK1(h) [7] | Activity at Protein Kinase Assays (% of control), PKA(h) [8] | Activity at Protein Kinase Assays (% of control), PKCε(h) [9] | Activity at Protein Kinase Assays (% of control), Rsk3(h) [10] | Activity at Protein Kinase Assays (% of control), SAPK2b(h) [11] |
| --- | --- | --- | --- | --- | --- | --- | --- | --- | --- | --- | --- |
| CN(C)c1cc2cc(n1)CCCn1cc(c3ccccc31)C1=C(C(=O)NC1=O)c1cn(c3ccccc13)CCC2 [Cpd 2, 20-(dimethylamino)-4,14,19,26-tetraazaheptacyclo[24.6.1.1^7,14.1^18,22.0^2,6.0^8,13.0^27,32]pentatriaconta-1(33),2(6),7(35),8,10,12,18(34),19,21,27,29,31-dodecaene-3,5-dione] | 108 % of control | 111 % of control | 84 % of control | 102 % of control | 101 % of control | 78 % of control | 104 % of control | 95 % of control | 83 % of control | 5 % of control | 119 % of control |
| CN(C)c1nc2ccc1CCCCn1cc(c3ccccc31)C1=C(C(=O)NC1=O)c1cn(c3ccccc13)CCC2 [Cpd 1, 31-(dimethylamino)-5,15,25,32-tetraazaheptacyclo[28.2.2.1^5,12.1^18,25.0^6,11.0^13,17.0^19,24]hexatriaconta-1(32),6,8,10,12(36),13(17),18(35),19,21,23,30,33-dodecaene-14,16-dione] | 98 % of control | 107 % of control | 75 % of control | 91 % of control | 98 % of control | 88 % of control | 115 % of control | 90 % of control | 72 % of control | 33 % of control | 104 % of control |
| O=C1NC(=O)C2=C1c1cn(c3ccccc13)CCCc1ccc(c(N3CCCC3)n1)CCCn1cc2c2ccccc21 [Cpd 7, 31-pyrrolidin-1-yl-5,15,25,30-tetraazaheptacyclo[27.2.2.1^5,12.1^18,25.0^6,11.0^13,17.0^19,24]pentatriaconta-1(31),6,8,10,12(35),13(17),18(34),19,21,23,29,32-dodecaene-14,16-dione] | 110 % of control | 109 % of control | 117 % of control | 87 % of control | 95 % of control | 85 % of control | 100 % of control | 102 % of control | 97 % of control | 25 % of control | 99 % of control |
| O=C1NC(=O)C2=C1c1cn(c3ccccc13)CCCc1cc(nc(N3CCCC3)c1)CCCn1cc2c2ccccc21 [Cpd 6, 20-pyrrolidin-1-yl-4,14,19,26-tetraazaheptacyclo[24.6.1.1^7,14.1^18,22.0^2,6.0^8,13.0^27,32]pentatriaconta-1(33),2(6),7(35),8,10,12,18(34),19,21,27,29,31-dodecaene-3,5-dione] | 104 % of control | 112 % of control | 114 % of control | 110 % of control | 108 % of control | 97 % of control | 107 % of control | 104 % of control | 93 % of control | 5 % of control | 114 % of control |
